For orientation: Ki means a measure of affinity in units of concentration, obtained from inhibition or displacement. A word on the EC50: it is the concentration giving half of the maximal effect.

Assay [1] has as its target T1, RXRβ (UniProt P28704).
T1 sequence (P28704 1-520): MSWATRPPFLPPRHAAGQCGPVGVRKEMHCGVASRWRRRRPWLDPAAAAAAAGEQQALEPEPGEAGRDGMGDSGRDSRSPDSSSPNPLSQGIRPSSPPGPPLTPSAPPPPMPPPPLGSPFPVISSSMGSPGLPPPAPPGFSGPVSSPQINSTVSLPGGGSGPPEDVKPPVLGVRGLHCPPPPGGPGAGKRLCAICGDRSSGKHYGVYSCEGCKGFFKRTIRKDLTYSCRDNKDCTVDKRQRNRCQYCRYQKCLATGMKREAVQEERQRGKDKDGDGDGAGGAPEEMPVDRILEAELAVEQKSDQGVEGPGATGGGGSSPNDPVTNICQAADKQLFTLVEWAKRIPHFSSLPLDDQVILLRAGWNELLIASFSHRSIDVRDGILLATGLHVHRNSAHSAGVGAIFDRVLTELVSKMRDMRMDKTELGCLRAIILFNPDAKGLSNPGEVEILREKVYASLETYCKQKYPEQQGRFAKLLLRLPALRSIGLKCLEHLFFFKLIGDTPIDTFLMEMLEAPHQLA
In words: ligand binding assay. The following applies: read-out: RXR Bind Ki (nM) β.
Text: (§1) The results obtained in this assay are expressed in EC50 numbers, as they are also in the chimeric receptor transactivation assay. The results of ligand binding assay are expressed in Kd numbers.
(§2) Particularly, the transactivation data pertaining to RAR receptors were obtained in the chimeric assay, and the data pertaining to transactivation of RXR receptors were obtained in the holoreceptor transactivation assay.

The target in another assay is T2, RARγ (Homo sapiens, UniProt P13631).
T2 sequence (P13631 1-454): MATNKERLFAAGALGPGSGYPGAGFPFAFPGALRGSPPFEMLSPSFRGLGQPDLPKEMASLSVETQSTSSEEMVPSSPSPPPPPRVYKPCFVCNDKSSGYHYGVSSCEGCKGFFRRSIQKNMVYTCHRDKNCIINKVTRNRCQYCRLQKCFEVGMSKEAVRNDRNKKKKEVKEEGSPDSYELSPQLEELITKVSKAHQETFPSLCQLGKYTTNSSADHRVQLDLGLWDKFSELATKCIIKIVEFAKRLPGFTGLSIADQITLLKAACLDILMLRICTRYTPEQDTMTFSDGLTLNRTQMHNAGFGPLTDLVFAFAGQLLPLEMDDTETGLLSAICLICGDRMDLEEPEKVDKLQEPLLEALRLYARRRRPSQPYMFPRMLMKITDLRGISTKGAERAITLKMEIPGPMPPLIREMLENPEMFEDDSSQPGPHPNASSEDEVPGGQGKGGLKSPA
In words: ligand binding assay. The following applies: read-out: RAR Bind. Ki (nM) Y.

The target in a further assay is T3, RARβ (Homo sapiens, UniProt P10826).
T3 sequence (P10826 1-455): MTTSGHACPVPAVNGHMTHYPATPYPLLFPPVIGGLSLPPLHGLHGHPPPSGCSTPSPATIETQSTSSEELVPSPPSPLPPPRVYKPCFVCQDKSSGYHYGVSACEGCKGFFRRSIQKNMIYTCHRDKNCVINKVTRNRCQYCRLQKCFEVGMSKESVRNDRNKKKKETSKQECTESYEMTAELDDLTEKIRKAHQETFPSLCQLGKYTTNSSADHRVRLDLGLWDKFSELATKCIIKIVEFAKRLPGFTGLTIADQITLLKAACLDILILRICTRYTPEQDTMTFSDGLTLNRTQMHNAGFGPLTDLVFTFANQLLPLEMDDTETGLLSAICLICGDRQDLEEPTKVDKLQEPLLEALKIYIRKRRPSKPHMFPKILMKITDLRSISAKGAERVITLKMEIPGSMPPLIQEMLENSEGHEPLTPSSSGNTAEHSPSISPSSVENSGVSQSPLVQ
As to the kind of experiment: ligand binding assay. The following applies: read-out: RAR Bind. Ki (nM) β.

Assay [2] has as its target T1, RXRβ. As to the kind of experiment: holoreceptor transactivation assay. In kind it is cell-based. Particulars: for EC50: NA = Not Active, read-out: RXR Trans. EC50 (nM) β; for % efficacy, RXR Trans. β: relative to 10^−6 M AGN 194204.
Text: as §1, §2
In assay [3] the target is T4, RXRγ (UniProt P28705).
T4 sequence (P28705 1-463): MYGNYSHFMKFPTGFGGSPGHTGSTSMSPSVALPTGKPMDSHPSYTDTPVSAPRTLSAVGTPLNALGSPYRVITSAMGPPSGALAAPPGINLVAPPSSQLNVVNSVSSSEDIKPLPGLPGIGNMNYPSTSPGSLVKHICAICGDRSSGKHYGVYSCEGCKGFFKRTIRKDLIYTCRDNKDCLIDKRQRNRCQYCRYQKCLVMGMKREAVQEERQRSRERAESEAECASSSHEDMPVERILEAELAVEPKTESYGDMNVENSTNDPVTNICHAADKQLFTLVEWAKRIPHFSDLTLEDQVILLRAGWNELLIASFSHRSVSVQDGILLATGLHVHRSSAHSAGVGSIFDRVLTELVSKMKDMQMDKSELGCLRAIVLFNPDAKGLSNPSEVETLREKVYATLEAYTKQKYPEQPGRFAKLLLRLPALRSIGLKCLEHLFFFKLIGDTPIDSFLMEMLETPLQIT
As to the kind of experiment: holoreceptor transactivation assay. The following applies: for EC50: NA = Not Active, read-out: RXR Trans. EC50 (nM) Y; for % efficacy, RXR Trans. Y: relative to 10^−6 M AGN 194204. In kind it is cell-based.
Text: as §1, §2

The target in assay [4] is T5, RXRα (Homo sapiens, UniProt P19793).
T5 sequence (P19793 1-462): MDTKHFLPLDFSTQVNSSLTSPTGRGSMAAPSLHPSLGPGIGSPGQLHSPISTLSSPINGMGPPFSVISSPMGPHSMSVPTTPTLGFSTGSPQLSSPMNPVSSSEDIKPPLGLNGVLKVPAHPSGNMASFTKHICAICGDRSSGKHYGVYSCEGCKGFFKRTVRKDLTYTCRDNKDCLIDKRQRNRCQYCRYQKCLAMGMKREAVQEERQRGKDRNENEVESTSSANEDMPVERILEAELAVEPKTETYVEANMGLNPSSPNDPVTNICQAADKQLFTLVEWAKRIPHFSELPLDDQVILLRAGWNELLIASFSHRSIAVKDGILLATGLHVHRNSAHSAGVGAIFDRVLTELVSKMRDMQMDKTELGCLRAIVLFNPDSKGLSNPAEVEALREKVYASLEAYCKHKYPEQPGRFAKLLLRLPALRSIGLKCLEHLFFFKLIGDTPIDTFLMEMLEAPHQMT
In words: ligand binding assay.
Text: as §1, §2

Assay [5] has as its target T5, RXRα. In words: holoreceptor transactivation assay. Particulars: for Emax: read-out: % efficacy, RXR Trans. α.
Text: as §1, §2
For assay [6], the target named is T4, RXRγ. As to the kind of experiment: ligand binding assay. Particulars: read-out: RXR Bind Ki (nM) Y.

Text for RARβ: as §1, §2
Text for RARγ: as §1, §2

As to `CCN(c1ccc(C(=O)O)cc1)c1cc2c(cc1C)C(C)(C)CC=C2C(C)C` [Compound 25, 4-[Ethyl(8-isopropyl-3,5,5-trimethyl-5,6-dihydronaphthalen-2-yl)amino]benzoic acid], the Ki on RXRβ [1] was 20 nM; at RARγ, 4400 nM; on RARβ, 6400 nM; on RXRα [4], 2 nM. Besides, the results for the EC50 on RXRβ [2], on RXRγ [3] and on RXRα [5] were 0.9 nM, 0.2 nM and less than 0.1 nM, respectively. In addition, on RXRβ [2], the “% efficacy, RXR Trans. β” value is “(96) %”. Further, at RXRγ [3], the “% efficacy, RXR Trans. Y” value is listed as “(105) %”. Also, the Emax at RXRα [5] amounted to 97%.

For the compound `Cc1cc2c(cc1N(C)c1ccc(C(=O)O)cc1)C(C)(C)CC=C2C(C)C` [Compound 52, 4-[Methyl-(5-isopropyl-3,8,8-trimethyl-7,8-dihydronaphthalen-2-yl)amino]benzoic acid], the Ki on RXRβ [1] is 2700 nM; on RARγ, greater than 10000 nM; on RARβ it was greater than 10000 nM; at RXRα [4], 1700 nM. Also, the EC50 on RXRβ [2] was greater than 1000 nM. Besides, the “% efficacy, RXR Trans. β” value on RXRβ [2] is listed as “(25) %”. Moreover, at RXRγ [3], the “% efficacy, RXR Trans. Y” value is “(855) %”. Also, the Emax at RXRα [5] is 75%.

As for `CCN(c1ccc(C(=O)O)cc1)c1cc2c(cc1C)C(C(C)C)=CCC2(C)C` [Compound 53, 4-[Ethyl-(5-isopropyl-3,8,8-trimethyl-7,8-dihydronaphthalen-2-yl)amino]benzoic acid], the Ki was greater than 1000 nM on RXRβ [1], greater than 10000 nM on RARγ, greater than 10000 nM on RARβ and 1200 nM at RXRα [4]. Further, the EC50 on RXRβ [2] was greater than 1000 nM. Further, on RXRβ [2], the “% efficacy, RXR Trans. β” value is listed as “(20) %”. For the same compound, on RXRγ [3], the “% efficacy, RXR Trans. Y” value is recorded as “(75) %”. Further, the Emax on RXRα [5] was determined as 65%.

Turning to `CCCN(c1ccc(C(=O)O)cc1)c1cc2c(cc1C)C(C(C)C)=CCC2(C)C` [Compound 54, 4-[n-Propyl-(5-isopropyl-3,8,8-trimethyl-7,8-dihydronaphthalen-2-yl)lamino]benzoic acid], the Ki at RXRβ [1] was greater than 1000 nM; on RARγ it was greater than 10000 nM; on RARβ, greater than 10000 nM; at RXRα [4], 485 nM. Also, the EC50 on RXRβ [2] was greater than 1000 nM; on RXRα [5], 378 nM. For the same compound, on RXRβ [2], the “% efficacy, RXR Trans. β” value was “(40) %”. Further, the “% efficacy, RXR Trans. Y” value on RXRγ [3] is reported as “(85) %”. The Emax at RXRα [5] stood at 66%.

Turning to `CCN(c1ccc(C(=O)O)cc1)c1cc2c(cc1C)C(C(C)(C)C)=CCC2(C)C` [Compound 60, 4-[Ethyl-(5-t-butyl-3,8,8-trimethyl-7,8-dihydronaphthalen-2-yl)amino]benzoic acid], the Ki is 426 nM at RXRβ [1], greater than 10000 nM at RARβ, 64 nM at RXRα [4] and 101 nM at RXRγ [6]. Further, on RXRβ [2], the “% efficacy, RXR Trans. β” value is listed as “(60) %”. For the same compound, the EC50 on RXRγ [3] was determined as 182 nM; on RXRα [5], 72 nM. Also, the “% efficacy, RXR Trans. Y” value on RXRγ [3] is “(124) %”. The Emax at RXRα [5] worked out at 88%.

For `CC1=CCC(C)(C)c2cc(N(C)c3ccc(C(=O)O)cc3)ccc21` [Compound 67, 4-[Methyl-(5,8,8-trimethyl-7,8-dihydro-naphthalen-2-yl)-amino]-benzoic acid], the Ki at RXRβ [1] was greater than 1000 nM; at RARβ it was greater than 10000 nM; on RXRα [4] it was 666 nM; at RXRγ [6], 1300 nM.

Take `CCC1=CCC(C)(C)c2cc(N(CC)c3ccc(C(=O)O)cc3)ccc21` [Compound 75, 4-[Ethyl-(5-ethyl-8,8-dimethyl-7,8-dihydro-naphthalen-2-yl)-amino]-benzoic acid]: the Ki was 806 nM at RXRβ [1], greater than 10000 nM at RARγ, greater than 10000 nM on RARβ and 442 nM at RXRα [4]. The “% efficacy, RXR Trans. β” value on RXRβ [2] is on record as “(75) %”. The “% efficacy, RXR Trans. Y” value at RXRγ [3] was “(95) %”. Further, a half-maximal effect on RXRα [5] (EC50) was put at 319 nM. Further, the Emax at RXRα [5] is 100%.

For the compound `CCCN(c1ccc(C(=O)O)cc1)c1ccc2c(c1)C(C(C)(C)C)=CCC2(C)C` [Compound 89], the Ki is 34 nM on RXRβ [1], greater than 10000 nM on RARβ, 7 nM at RXRα [4] and 8 nM at RXRγ [6]. The results for the EC50 at RXRβ [2], at RXRγ [3] and on RXRα [5] were 8 nM, 1 nM and 1 nM, respectively. Besides, at RXRβ [2], the “% efficacy, RXR Trans. β” value was “(93) %”. Further, the “% efficacy, RXR Trans. Y” value on RXRγ [3] is recorded as 105) %. Moreover, on RXRα [5], the Emax is 108%.

For the compound `CCCOc1cc2c(cc1N(CC)c1ccc(C(=O)O)cc1)C(C(C)C)=CCC2(C)C` [Compound 150, 4-[Ethyl-(8-isopropyl-5,5-dimethyl-3-n-propoxy-5,6-dihydronaphthalen-2-yl)amino]benzoic acid], the Ki was 208 nM at RXRβ [1]; 7900 nM at RARγ; 3800 nM on RARβ; 61 nM on RXRα [4]; 352 nM at RXRγ [6].

With `CCN(c1ccc(C(=O)O)cc1)c1cc2c(cc1OC(C)C)C(C)(C)CC=C2C(C)C` [Compound 151, 4-[Ethyl-(3-isopropoxy-5,5-dimethyl-8-isopropyl-5,6-dihydronaphthalen-2-yl)amino]benzoic acid], the inhibition constant Ki was 155 nM at RXRβ [1]; greater than 10000 nM on RARγ; 1200 nM at RARβ; 54 nM on RXRα [4]; 248 nM at RXRγ [6].

As to `CCCCOc1cc2c(cc1N(CC)c1ccc(C(=O)O)cc1)C(C(C)C)=CCC2(C)C` [Compound 152, 4-[(3-n-Butoxy-8-isopropyl-5,5-dimethyl-5,6-dihydronaphthalen-2-yl)ethylamino]benzoic acid], the Ki on RXRβ [1] turned out to be 136 nM; on RARβ, 2300 nM; at RXRα [4] it was 29 nM; at RXRγ [6], 437 nM.
